Data as given in ChEMBL document CHEMBL4373667, “Synthesis and anti-cancer activities of glycosides and glycoconjugates of diterpenoid isosteviol” (Medchemcomm, 2019).

Experiments:
[1] = test system: MCF7; experiment: Antiproliferative activity against human MCF7cells assessed as reduction in cell viability after 24 hrs by DAPI/propidium iodide staining based assay; type: functional; details: MCF7, 24 h
[2] = Cytotoxicity against human Chang liver cells assessed as reduction in cell viability after 24 hrs by DAPI/propidium iodide staining based assay
[3] = test system: M-HeLa; experiment: Antiproliferative activity against human M-HeLa cells assessed as reduction in cell viability after 24 hrs by DAPI/propidium iodide staining based assay; type: functional
[4] = Hemolytic activity in human Erythrocytes at 10 +/- 0.8 uM relative to control; type: ADME, cell-based, Erythrocyte; details: read-out: Activity
[5] = test system: M-HeLa; experiment: Induction of mitochondrial membrane potential loss in human M-HeLa cells assessed as collapsed mitochondrial membrane potential at 25 uM after 24 hrs by Jc-10 dye based flow cytometric analysis (reference value: 22.17%); type: functional
[6] = test system: M-HeLa; experiment: Induction of apoptosis in human M-HeLa cells assessed as viable cells at 25 uM after 24 hrs by annexin V-FITC/PIstaining based flow cytometric analysis (reference value: 93.33%); type: functional; details: read-out: Activity
[7] = test system: M-HeLa; experiment: Induction of mitochondrial membrane potential loss in human M-HeLa cells assessed as intact mitochondrial membrane potential at 25 uM after 24 hrs by Jc-10 dye based flow cytometric analysis (reference value: 77.48%); type: functional
[8] = test system: M-HeLa; experiment: Induction of apoptosis in human M-HeLa cells assessed as viable cells at 10 uM after 24 hrs by annexin V-FITC/PIstaining based flow cytometric analysis (reference value: 93.33%); type: functional; details: read-out: Activity
[9] = test system: M-HeLa; experiment: Induction of mitochondrial membrane potential loss in human M-HeLa cells assessed as intact mitochondrial membrane potential at 10 uM after 24 hrs by Jc-10 dye based flow cytometric analysis (reference value: 77.48%); type: functional
[10] = test system: M-HeLa; experiment: Induction of mitochondrial membrane potential loss in human M-HeLa cells assessed as collapsed mitochondrial membrane potential at 10 uM after 24 hrs by Jc-10 dye based flow cytometric analysis (reference value: 22.17%); type: functional
[11] = Hemolytic activity in human Erythrocytes at 50 +/- 0.8 uM relative to control; type: ADME, cell-based, Erythrocyte; details: read-out: Activity
[12] = test system: M-HeLa; experiment: Induction of apoptosis in human M-HeLa cells assessed as early apoptotic cells at 10 uM after 24 hrs by annexin V-FITC/PIstaining based flow cytometric analysis (reference value: 1.5%); type: functional
[13] = test system: M-HeLa; experiment: Induction of apoptosis in human M-HeLa cells assessed as late apoptotic cells at 10 uM after 24 hrs by annexin V-FITC/PIstaining based flow cytometric analysis (reference value: 0.62%); type: functional
[14] = test system: M-HeLa; experiment: Induction of apoptosis in human M-HeLa cells assessed as necrotic cells at 10 uM after 24 hrs by annexin V-FITC/PIstaining based flow cytometric analysis (reference value: […]); type: functional
[15] = Hemolytic activity in human Erythrocytes at 100 +/- 7.8 uM relative to control; type: ADME, cell-based, Erythrocyte; details: read-out: Activity
[16] = test system: M-HeLa; experiment: Induction of apoptosis in human M-HeLa cells assessed as late apoptotic cells at 25 uM after 24 hrs by annexin V-FITC/PIstaining based flow cytometric analysis (reference value: 0.62%); type: functional
[17] = test system: M-HeLa; experiment: Induction of apoptosis in human M-HeLa cells assessed as necrotic cells at 25 uM after 24 hrs by annexin V-FITC/PIstaining based flow cytometric analysis (reference value: […]); type: functional
[18] = test system: M-HeLa; experiment: Induction of apoptosis in human M-HeLa cells assessed as early apoptotic cells at 25 uM after 24 hrs by annexin V-FITC/PIstaining based flow cytometric analysis (reference value: 1.5%); type: functional

| Compound | IC50 [1] | IC50 [3] | IC50 [2] | also measured |
| --- | --- | --- | --- | --- |
| C[C@@]12CC[C@@H]3[C@@](CC[C@H]4[C@@]3(C)CCC[C@@]4(C)C(=O)O[C@@H]3O[C@H](C(=O)NN)[C@@H](O)[C@H](O)[C@H]3O)(C/C1=N\N)C2 | > 100 µM | > 100 µM | > 100 µM |  |
| CC(=O)OC[C@H]1O[C@@H](OC(=O)[C@]2(C)CCC[C@@]3(C)[C@@H]4CC[C@@]5(C)C[C@]4(CC[C@@H]32)CC5=O)[C@H](OC(C)=O)[C@@H](OC(C)=O)[C@H]1OC(C)=O | > 100 µM | > 100 µM | > 100 µM |  |
| C[C@@]12CC[C@@H]3[C@@](CC[C@H]4[C@@]3(C)CCC[C@@]4(C)C(=O)O[C@H]3O[C@H](CO)[C@@H](O)[C@H](O)[C@@H]3O)(CC1=O)C2 | > 100 µM | > 100 µM | > 100 µM |  |
| CC(=O)OC[C@H]1O[C@@H](OC(=O)[C@]2(C)CCC[C@@]3(C)[C@@H]4CC[C@@]5(C)C[C@]4(CC[C@@H]32)CC5=O)[C@H](OC(C)=O)[C@@H](OC(C)=O)[C@@H]1OC(C)=O | > 100 µM | > 100 µM | > 100 µM |  |
| CC(=O)N[C@H]1[C@H](OC(=O)CCCCCOC(=O)[C@]2(C)CCC[C@@]3(C)[C@@H]4CC[C@@]5(C)C[C@]4(CC[C@@H]32)CC5=O)O[C@H](COC(C)=O)[C@@H](OC(C)=O)[C@@H]1OC(C)=O | > 100 µM | 46 µM | 51.2 µM |  |
| CC(=O)N[C@H]1[C@H](OC(=O)[C@]2(C)CCC[C@@]3(C)[C@@H]4CC[C@@]5(C)C[C@]4(CC[C@@H]32)CC5=O)O[C@H](CO)[C@@H](O)[C@@H]1O | > 100 µM | > 100 µM | > 100 µM |  |
| C[C@@]12CC[C@@H]3[C@@](CC[C@H]4[C@@]3(C)CCC[C@@]4(C)C(=O)O[C@@H]3O[C@H](CO)[C@@H](O)[C@H](O)[C@H]3O)(CC1=O)C2 | > 100 µM | 32 µM | > 100 µM |  |
| CC/C(=C(\c1ccccc1)c1ccc(OCCN(C)C)cc1)c1ccccc1 [TAMOXIFEN] |  |  | 46 µM |  |

Further lines, with some results ahead:

| IC50 [1] | IC50 [3] | Compound | IC50 [2] | also measured |
| --- | --- | --- | --- | --- |
| 65 µM | 26 µM | COC(=O)[C@H]1O[C@@H](OC(=O)[C@]2(C)CCC[C@@]3(C)[C@@H]4CC[C@@]5(C)C[C@]4(CC[C@@H]32)CC5=O)[C@H](OC(C)=O)[C@@H](OC(C)=O)[C@@H]1OC(C)=O | > 100 µM |  |
| 29.3 µM | 15.1 µM | CC(=O)OC[C@H]1O[C@H](OC(=O)[C@]2(C)CCC[C@@]3(C)[C@@H]4CC[C@@]5(C)C[C@]4(CC[C@@H]32)CC5=O)[C@@H](OC(C)=O)[C@@H](OC(C)=O)[C@@H]1OC(C)=O | > 100 µM | hemolysis at 10 uM [4]: 0%; Activity [5]: 92.26%; viability at 25 µM [6]: 73.7%; Activity [7]: 7.74%; viability at 10 µM [8]: 85.8%; Activity [9]: 28.67%; Activity [10]: 70.85%; hemolysis at 50 uM [11]: 0%; Activity [12]: 3.02%; Activity [13]: 7.25%; Activity [14]: 3.98%; hemolysis at 100 uM [15]: 0%; Activity [16]: 12.97%; Activity [17]: 0.28%; Activity [18]: 13.12% |
| 31 µM | 18 µM | CC(=O)OC[C@H]1O[C@H](OC(=O)CCCCCCCCCOC(=O)[C@]2(C)CCC[C@@]3(C)[C@@H]4CC[C@@]5(C)C[C@]4(CC[C@@H]32)CC5=O)[C@@H](OC(C)=O)[C@@H](OC(C)=O)[C@@H]1OC(C)=O | > 100 µM |  |
| 63.2 µM | 11 µM | CC(=O)OC[C@H]1O[C@H](OC(=O)CCCCCOC(=O)[C@]2(C)CCC[C@@]3(C)[C@@H]4CC[C@@]5(C)C[C@]4(CC[C@@H]32)CC5=O)[C@@H](OC(C)=O)[C@@H](OC(C)=O)[C@@H]1OC(C)=O | > 100 µM | hemolysis at 10 uM [4]: 0%; Activity [5]: 89.29%; viability at 25 µM [6]: 84.3%; Activity [7]: 10.64%; viability at 10 µM [8]: 86.6%; Activity [9]: 8.98%; Activity [10]: 90.91%; hemolysis at 50 uM [11]: 1.7%; Activity [12]: 7.57%; Activity [13]: 5.59%; Activity [14]: 0.22%; hemolysis at 100 uM [15]: 5.5%; Activity [16]: 5.02%; Activity [17]: 0.05%; Activity [18]: 10.59% |
| 33.2 µM | 27 µM | CC(=O)OC[C@H]1O[C@@H](OC(=O)CCCCCCCCCOC(=O)[C@]2(C)CCC[C@@]3(C)[C@@H]4CC[C@@]5(C)C[C@]4(CC[C@@H]32)CC5=O)[C@H](OC(C)=O)[C@@H](OC(C)=O)[C@H]1OC(C)=O | > 100 µM |  |
| 29 µM | 52 µM | C[C@@]12CC[C@@H]3[C@@](CC[C@H]4[C@@]3(C)CCC[C@@]4(C)C(=O)O[C@@H]3O[C@H](CO)[C@H](O)[C@H](O)[C@H]3O)(CC1=O)C2 | 58 µM |  |
| 36 µM | 18 µM | CC(=O)N[C@H]1[C@H](OC(=O)[C@]2(C)CCC[C@@]3(C)[C@@H]4CC[C@@]5(C)C[C@]4(CC[C@@H]32)CC5=O)O[C@H](COC(C)=O)[C@@H](OC(C)=O)[C@@H]1OC(C)=O | 86 µM |  |
| 32.1 µM | 10 µM | CC(=O)OC[C@H]1O[C@@H](OC(=O)CCCCCOC(=O)[C@]2(C)CCC[C@@]3(C)[C@@H]4CC[C@@]5(C)C[C@]4(CC[C@@H]32)CC5=O)[C@H](OC(C)=O)[C@@H](OC(C)=O)[C@H]1OC(C)=O | > 100 µM | hemolysis at 10 uM [4]: 0%; Activity [5]: 88.38%; viability at 25 µM [6]: 37.3%; Activity [7]: 11.53%; viability at 10 µM [8]: 52.1%; Activity [9]: 55.78%; Activity [10]: 44.17%; hemolysis at 50 uM [11]: 0%; Activity [12]: 34.78%; Activity [13]: 7.61%; Activity [14]: 5.49%; hemolysis at 100 uM [15]: 0%; Activity [16]: 13.98%; Activity [17]: 8.9%; Activity [18]: 39.77% |
| 64.9 µM | > 100 µM | CC(=O)N[C@H]1[C@H](OC(=O)CCCCCCCCCOC(=O)[C@]2(C)CCC[C@@]3(C)[C@@H]4CC[C@@]5(C)C[C@]4(CC[C@@H]32)CC5=O)O[C@H](COC(C)=O)[C@@H](OC(C)=O)[C@@H]1OC(C)=O | > 100 µM |  |
